Assay results reported in patent US6362369B1, “Phthalic acid diamide derivatives fluorine-containing aniline compounds as starting material, agricultural and horticultural insecticides, and a method for application of the insecticides” (Nihon Nohyaku Co., Ltd., priority 1997, dated 2002).

Legend:
Format in all cases: in vivo
[1] = test system: rice leafroller (Cnaphalocrocis medinalis); assay: Insecticidal effect on rice leafroller (Test Example 3); conditions: 500 ppm, 25° C., humidity 70%; for Insecticidal effect on rice leafroller (Test Example 3), judged grade / Insecticidal effect (Test Example 3), judged from mortality: rice lamina dip; for Insecticidal effect on rice leafroller (Test Example 3), judged grade: third-instar larvae; for Insecticidal effect on rice leafroller (Test Example 3), judged grade / Insecticidal effect, Test Example 3: four days after inoculation; for Insecticidal effect, Test Example 3: rice lamina immersed; for Insecticidal effect (Test Example 3), judged from mortality: 4 days after inoculation
In short: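 Insecticidal effect is judged by a predefined criterion from dead/alive counts four days after infesting air-dried lamina with third-instar larvae, kept on moistened filter paper at 25° C, 70% humidity.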

[2] = test system: diamondback moth (Plutella xylostella); assay: Insecticidal effect on diamondback moth (Test Example 1); conditions: for Insecticidal effect on diamondback moth (Test Example 1), judged grade: mortality judged according to the criterion shown in Test Example 1; for Insecticidal effect, Test Example 1 / Insecticidal effect (Test Example 1), judged from mortality: diamondback moth; for Insecticidal effect (Test Example 1), judged from mortality: judged by the criterion of Test Example 1
In short: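 Oviposition by adults on Chinese cabbage seedling; immersion; air-dry; 25° C room. Count of hatched larvae at day 6 post-immersion → mortality → effect graded by criterion. Triplicate, 10 insects/group.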

[3] = test system: common cutworm (Spodoptera Litura); assay: Insecticidal effect on common cutworm (Test Example 2); conditions: 500 ppm, 25° C.; for Insecticidal effect on common cutworm (Test Example 2), judged grade / Insecticidal effect (Test Example 2), judged from mortality: cabbage leaf dip; for Insecticidal effect on common cutworm (Test Example 2), judged grade: second-instar larvae; for Insecticidal effect on common cutworm (Test Example 2), judged grade / Insecticidal effect, Test Example 2: eight days after inoculation; for Insecticidal effect, Test Example 2: cabbage leaf immersed; for Insecticidal effect (Test Example 2), judged from mortality: 8 days after inoculation
In short: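 After the treated material air-dries, it goes into a dish, second-instar larvae are added, and the dish is closed. Incubation runs at 25° C. On day eight, dead and living larvae are scored, and the calculated mortality is rated on an effect scale.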

[4] = rice leafroller third-instar larvae
[5] = mortality judged by criterion of Test Example 1
[6] = common cutworm second-instar larvae
[7] = third-instar larvae of rice leafroller
[8] = second-instar larvae of common cutworm
[9] = judged by the mortality criterion of Test Example 1

COc1cccc(C(=O)Nc2ccc(OC(F)(F)F)cc2)c1C(=O)NC(C)C [compound 767]
Insecticidal effect on rice leafroller (Test Example 3), judged grade [1]: A (100) | Insecticidal effect on diamondback moth (Test Example 1), judged grade [2]: A (100) | Insecticidal effect on common cutworm (Test Example 2), judged grade [3]: C (89-80)

CC(C)NC(=O)c1c(I)cccc1C(=O)Nc1ccc2c(c1)OC(F)(F)C(F)O2 (stereo not drawn) [compound 1164]
Insecticidal effect, Test Example 3 [1, 4]: A (100) | Insecticidal effect, Test Example 1 [2, 5]: A (100) | Insecticidal effect, Test Example 2 [3, 6]: A (100)

CC(C)NC(=O)c1c(Cl)cccc1C(=O)Nc1ccc2c(c1)OC(F)(F)C(F)O2 (stereo not drawn) [compound 1163]
Insecticidal effect, Test Example 3 [1, 4]: A (100) | Insecticidal effect, Test Example 1 [2, 5]: A (100) | Insecticidal effect, Test Example 2 [3, 6]: A (100)

Cc1cc(C(F)(C(F)(F)F)C(F)(F)F)ccc1NC(=O)c1cccc(C(F)(F)F)c1C(=O)NC(C)(C)C [compound 1232]
Insecticidal effect, Test Example 3 [1, 4]: A (100) | Insecticidal effect, Test Example 1 [2, 5]: A (100) | Insecticidal effect, Test Example 2 [3, 6]: A (100)

Cc1cc(OC(F)(F)C(F)(F)Br)ccc1NC(=O)c1cccc([N+](=O)[O-])c1C(=O)NC(C)C [compound 698]
Insecticidal effect on rice leafroller (Test Example 3), judged grade [1]: A (100) | Insecticidal effect on diamondback moth (Test Example 1), judged grade [2]: A (100) | Insecticidal effect on common cutworm (Test Example 2), judged grade [3]: B (99-90)

Cc1cc(Oc2ncccn2)ccc1NC(=O)c1cccc(I)c1C(=O)NC(C)C [compound 1618]
Insecticidal effect (Test Example 3), judged from mortality [1, 7]: A (100) | Insecticidal effect (Test Example 1), judged from mortality [2]: A (100) | Insecticidal effect (Test Example 2), judged from mortality [3, 8]: C (89-80)

CCN(CC)C(=O)c1c(I)cccc1C(=O)Nc1ccc(SC(F)(F)F)cc1 [compound 1128]
Insecticidal effect, Test Example 3 [1, 4]: A (100) | Insecticidal effect, Test Example 1 [2, 5]: A (100) | Insecticidal effect, Test Example 2 [3, 6]: A (100)

Cc1cc([S+]([O-])C(F)(F)F)ccc1NC(=O)c1cccc(I)c1C(=O)NC(C)(C)C (stereo not drawn) [compound 1169]
Insecticidal effect, Test Example 3 [1, 4]: A (100) | Insecticidal effect, Test Example 1 [2, 5]: A (100) | Insecticidal effect, Test Example 2 [3, 6]: A (100)

CCN(CC)C(=O)c1c(F)cccc1C(=O)Nc1ccc(C(F)(F)C(F)(F)F)cc1Cl [compound 1531]
Insecticidal effect (Test Example 3), judged from mortality [1, 7]: A (100) | Insecticidal effect (Test Example 1), judged from mortality [2]: A (100) | Insecticidal effect (Test Example 2), judged from mortality [3, 8]: A (100)

Cc1cc(OC(F)(F)C(Cl)(Cl)Cl)ccc1NC(=O)c1c(Cl)cccc1C(=O)NC(C)C [compound 222]
Insecticidal effect, Test Example 3 [1, 7]: A (100) | Insecticidal effect, Test Example 1 [2, 9]: A (100) | Insecticidal effect, Test Example 2 [3, 8]: B (99-90)

CC(C)NC(=O)c1c(I)cccc1C(=O)Nc1ccc(C(F)(F)C(F)(F)C(F)(F)F)cc1Cl [compound 407]
Insecticidal effect, Test Example 3 [1, 7]: A (100) | Insecticidal effect, Test Example 1 [2, 9]: A (100) | Insecticidal effect, Test Example 2 [3, 8]: A (100)

CCN(CC)C(=O)c1c(C(=O)Nc2ccc(OC(F)(F)F)cc2C)cccc1[N+](=O)[O-] [compound 1118]
Insecticidal effect, Test Example 3 [1, 4]: A (100) | Insecticidal effect, Test Example 1 [2, 5]: A (100) | Insecticidal effect, Test Example 2 [3, 6]: A (100)

Cc1cc(OC(F)F)c(Cl)cc1NC(=O)c1cccc(Cl)c1C(=O)NC(C)C [compound 150]
Insecticidal effect, Test Example 3 [1, 7]: A (100) | Insecticidal effect, Test Example 1 [2, 9]: A (100) | Insecticidal effect, Test Example 2 [3, 8]: A (100)

CC(C)NC(=O)c1c(I)cccc1C(=O)Nc1ccc(C(F)(C(F)(F)F)C(F)(F)F)cc1Cl [compound 1722]
Insecticidal effect (Test Example 3), judged from mortality [1, 7]: A (100) | Insecticidal effect (Test Example 1), judged from mortality [2]: A (100) | Insecticidal effect (Test Example 2), judged from mortality [3, 8]: A (100)

CC(C)NC(=O)c1c(I)cccc1C(=O)Nc1ccc(C(F)(F)C(F)(F)F)cc1F [compound 1385]
Insecticidal effect, Test Example 3 [1, 4]: A (100) | Insecticidal effect, Test Example 1 [2, 5]: A (100) | Insecticidal effect, Test Example 2 [3, 6]: A (100)

CCNC(=O)c1c(C(=O)Nc2ccc(OC(F)F)cc2C)cccc1[N+](=O)[O-] [compound 11]
Insecticidal effect, Test Example 3 [1, 7]: C (89-80) | Insecticidal effect, Test Example 1 [2, 9]: A (100) | Insecticidal effect, Test Example 2 [3, 8]: C (89-80)

CC(C)NC(=O)c1c(F)cccc1C(=O)Nc1ccc(C(F)(F)C(F)(F)F)cc1 [compound 891]
Insecticidal effect on rice leafroller (Test Example 3), judged grade [1]: A (100) | Insecticidal effect on diamondback moth (Test Example 1), judged grade [2]: A (100) | Insecticidal effect on common cutworm (Test Example 2), judged grade [3]: A (100)

Cc1cc(C(F)(F)C(F)(F)F)ccc1NC(=O)c1ccccc1C(=O)NC(C)(C)C [compound 931]
Insecticidal effect on rice leafroller (Test Example 3), judged grade [1]: A (100) | Insecticidal effect on diamondback moth (Test Example 1), judged grade [2]: A (100) | Insecticidal effect on common cutworm (Test Example 2), judged grade [3]: A (100)

CCCCNC(=O)c1c(I)cccc1C(=O)Nc1ccc(C(F)(F)C(F)(F)F)cc1C [compound 945]
Insecticidal effect, Test Example 3 [1, 4]: A (100) | Insecticidal effect, Test Example 1 [2, 5]: A (100) | Insecticidal effect, Test Example 2 [3, 6]: A (100)

CC(C)NC(=O)c1cccc(F)c1C(=O)Nc1ccc(C(F)(C(F)(F)F)C(F)(F)F)cc1Cl [compound 561]
Insecticidal effect on rice leafroller (Test Example 3), judged grade [1]: A (100) | Insecticidal effect on diamondback moth (Test Example 1), judged grade [2]: A (100) | Insecticidal effect on common cutworm (Test Example 2), judged grade [3]: C (89-80)

CCOCCNC(=O)c1c(I)cccc1C(=O)Nc1ccc(C(F)(F)C(F)(F)F)cc1C [compound 983]
Insecticidal effect, Test Example 3 [1, 4]: A (100) | Insecticidal effect, Test Example 1 [2, 5]: A (100) | Insecticidal effect, Test Example 2 [3, 6]: A (100)

CCN(CC)C(=O)c1c(OC(F)(F)F)cccc1C(=O)Nc1ccc(C(F)(F)C(F)(F)F)cc1C [compound 1193]
Insecticidal effect, Test Example 3 [1, 4]: A (100) | Insecticidal effect, Test Example 1 [2, 5]: A (100) | Insecticidal effect, Test Example 2 [3, 6]: A (100)

Cc1cc(C(F)(F)C(F)(F)F)ccc1NC(=O)c1cccc(Cl)c1C(=O)NC(C)c1cccc(Cl)c1 (stereo not drawn) [compound 1364]
Insecticidal effect, Test Example 3 [1, 4]: A (100) | Insecticidal effect, Test Example 1 [2, 5]: A (100) | Insecticidal effect, Test Example 2 [3, 6]: A (100)

CC(C)NC(=O)c1c(F)cccc1C(=O)Nc1ccc(C(F)(C(F)(F)F)C(F)(F)F)cc1Cl [compound 507]
Insecticidal effect on rice leafroller (Test Example 3), judged grade [1]: A (100) | Insecticidal effect on diamondback moth (Test Example 1), judged grade [2]: A (100) | Insecticidal effect on common cutworm (Test Example 2), judged grade [3]: B (99-90)

Cc1cc(C(F)(F)C(F)(F)F)ccc1NC(=O)c1cccc(Cl)c1C(=O)NCc1ccccn1 [compound 1355]
Insecticidal effect, Test Example 3 [1, 4]: A (100) | Insecticidal effect, Test Example 1 [2, 5]: A (100) | Insecticidal effect, Test Example 2 [3, 6]: A (100)

Cc1cc(Cl)ccc1NC(=O)c1cccc(Cl)c1C(=O)NC(C)C [compound 119]
Insecticidal effect, Test Example 3 [1, 7]: A (100) | Insecticidal effect, Test Example 1 [2, 9]: A (100) | Insecticidal effect, Test Example 2 [3, 8]: A (100)

COc1cc(C(F)(F)C(F)(F)F)ccc1NC(=O)c1cccc(I)c1C(=O)NC(C)C [compound 1388]
Insecticidal effect, Test Example 3 [1, 4]: A (100) | Insecticidal effect, Test Example 1 [2, 5]: A (100) | Insecticidal effect, Test Example 2 [3, 6]: D (79-50)

CC(C)NC(=O)c1c(I)cccc1C(=O)Nc1ccc(C(F)(F)C(F)(F)C(F)(F)F)cc1F [compound 1474]
Insecticidal effect (Test Example 3), judged from mortality [1, 7]: A (100) | Insecticidal effect (Test Example 1), judged from mortality [2]: A (100) | Insecticidal effect (Test Example 2), judged from mortality [3, 8]: A (100)

CCc1cc(C(F)(C(F)(F)F)C(F)(F)F)ccc1NC(=O)c1cccc(I)c1C(=O)NC(C)C [compound 1714]
Insecticidal effect (Test Example 3), judged from mortality [1, 7]: A (100) | Insecticidal effect (Test Example 1), judged from mortality [2]: A (100) | Insecticidal effect (Test Example 2), judged from mortality [3, 8]: A (100)

CC(C)NC(=O)c1c(C(=O)Nc2ccc3c(c2)OC(F)(F)C(F)(F)O3)cccc1[N+](=O)[O-] [compound 976]
Insecticidal effect, Test Example 3 [1, 4]: A (100) | Insecticidal effect, Test Example 1 [2, 5]: A (100) | Insecticidal effect, Test Example 2 [3, 6]: A (100)

Cc1cc(C(F)(F)C(F)(F)F)ccc1NC(=O)c1cccc(I)c1C(=O)NC(C)C [compound 372, 3-iodo-N^1-(4-pentafluoroethyl-2-methylphenyl)-N^2-isopropyl-phthalic acid diamide]
Insecticidal effect, Test Example 3 [1, 7]: A (100) | Insecticidal effect, Test Example 1 [2, 9]: A (100) | Insecticidal effect, Test Example 2 [3, 8]: A (100)

Cc1cc(C(F)(C(F)(F)F)C(F)(F)F)ccc1NC(=O)c1ccc(I)cc1C(=O)NC(C)C [compound 1250]
Insecticidal effect, Test Example 3 [1, 4]: A (100) | Insecticidal effect, Test Example 1 [2, 5]: A (100) | Insecticidal effect, Test Example 2 [3, 6]: A (100)

Cc1c(NC(=O)c2c(F)cccc2C(=O)NC(C)C)cccc1OC(F)F [compound 558]
Insecticidal effect on rice leafroller (Test Example 3), judged grade [1]: A (100) | Insecticidal effect on diamondback moth (Test Example 1), judged grade [2]: A (100) | Insecticidal effect on common cutworm (Test Example 2), judged grade [3]: A (100)

Cc1cc(Sc2ccc(Cl)cc2)ccc1NC(=O)c1ccccc1C(=O)NC(C)C [compound 77]
Insecticidal effect, Test Example 3 [1, 7]: A (100) | Insecticidal effect, Test Example 1 [2, 9]: A (100) | Insecticidal effect, Test Example 2 [3, 8]: C (89-80)

Cc1cc(C(F)(F)C(F)(F)C(F)(F)C(F)(F)F)ccc1NC(=O)c1cccc(Br)c1C(=O)NC(C)C [Compound No. 281, 3-bromo-N^1-(4-nonafluorobutyl-2-methylphenyl)-N^2-isopropyl-phthalic acid diamide]
Insecticidal effect, Test Example 3 [1, 7]: A (100) | Insecticidal effect, Test Example 1 [2, 9]: A (100) | Insecticidal effect, Test Example 2 [3, 8]: A (100)
